Data on 35 molecules can be found in patent US7585874B2, “Aryl-isoxazol-4-yl-imidazo[1,2-a]pyridine derivatives” (Hoffmann-La Roche Inc., priority 2006, dated 2009).

Each structure is given as a SMILES string.

The target in the assay is T1, GABA A receptor α5β3γ2 (Homo sapiens, UniProt P18507+P31644).
T1 construct: expressed in transfected cells; host or cells: HEK293 (transiently transfected; membranes)
The experiment in a line: [3H]flumazenil competition binding, membranes of HEK293 cells expressing human GABA A α5β3γ2. The conditions noted are these: human α5β3γ2 in HEK293 (transiently transfected); 0.5 nM [3H]flumazenil; 1 hour at 4° C.; means of two determinations; read-out: Ki[nM]hα5. The protocol:
The affinity of compounds at GABA A receptor subtypes was measured by competition for [3H]flumazenil (85 Ci/mmol; Roche) binding to HEK293 cells expressing rat (stably transfected) or human (transiently transfected) receptors of composition α1β3γ2, α2β3γ2, α3β3γ2 and α5β3γ2.
Cell pellets were suspended in Krebs-tris buffer (4.8 mM KCl, 1.2 mM CaCl2, 1.2 mM MgCl2, 120 mM NaCl, 15 mM Tris; pH 7.5; binding assay buffer), homogenized by polytron for ca. 20 sec on ice and centrifuged for 60 min at 4° C. (50000 g; Sorvall, rotor: SM24=20000 rpm). The cell pellets were resuspended in Krebs-tris buffer and homogenized by polytron for ca. 15 sec on ice. Protein was measured (Bradford method, Bio-Rad) and aliquots of 1 mL were prepared and stored at −80° C.
Radioligand binding assays were carried out in a volume of […] (96-well plates) which contained […] of cell membranes, [3H]flumazenil at a concentration of 1 nM for α1, α2, α3 subunits and 0.5 nM for α5 subunits and the test compound in the range of […]. Nonspecific binding was defined by 10^−5 M diazepam and typically represented less than 5% of the total binding. Assays were incubated to equilibrium for 1 hour at 4° C. and harvested onto GF/C uni-filters (Packard) by filtration using a Packard harvester and washing with ice-cold wash buffer 50 mM Tris; pH 7.5). After drying, filter-retained radioactivity was detected by liquid scintillation counting. Ki values were calculated using Excel-Fit (Microsoft) and are the means of two determinations.

A word on the Ki: it is the dissociation constant of the complex between target and ligand, obtained from inhibition or displacement. Turning to `Cc1onc(-c2ccccc2)c1-c1cn2ccccc2n1` [Example 1, 2-(5-Methyl-3-phenyl-isoxazol-4-yl)-imidazo[1,2-a]pyridine], the Ki is 167 nM.

Consider `Cc1onc(-c2ccccc2)c1-c1cn2cc(Cl)ccc2n1` [Example 26, 6-Chloro-2-(5-methyl-3-phenyl-isoxazol-4-yl)-imidazo[1,2-a]pyridine], for which the Ki is 110 nM.

`Cc1onc(-c2ccccc2)c1-c1cn2cc(NC(=O)Cc3cccnc3)ccc2n1` [Example 56, N-[2-(5-Methyl-3-phenyl-isoxazol-4-yl)-imidazo[1,2-a]pyridin-6-yl]-2-pyridin-3-yl-acetamide]: the Ki was found to be 54.3 nM.

Take `Cc1onc(-c2ccccc2)c1-c1cn2cc(C(=O)NC3CCOCC3)ccc2n1` [Example 37, 2-(5-Methyl-3-phenyl-isoxazol-4-yl)-imidazo[1,2-a]pyridine-6-carboxylic acid (tetrahydro-pyran-4-yl)-amide]: the Ki was 6.8 nM.

With `Cc1onc(-c2ccccc2)c1-c1cn2cccc(O)c2n1` [Example 5, 2-(5-Methyl-3-phenyl-isoxazol-4-yl)-imidazo[1,2-a]pyridin-8-ol], the Ki was 20.2 nM.

On to `Cc1onc(-c2ccccc2)c1-c1cn2ccc(N)cc2n1` [Example 46, 2-(5-Methyl-3-phenyl-isoxazol-4-yl)-imidazo[1,2-a]pyridin-7-ylamine], for which the Ki came out at 90.3 nM.

Turning to `Cc1onc(-c2ccccc2)c1-c1cn2cc(C(=O)NCC3CC3)ccc2n1` [Example 31, 2-(5-Methyl-3-phenyl-isoxazol-4-yl)-imidazo[1,2-a]pyridine-6-carboxylic acid cyclopropylmethyl-amide], the inhibition constant (Ki) was found to be 23.9 nM.

`Cc1onc(-c2ccccc2)c1-c1cn2cc(C(=O)NCc3cccnc3)ccc2n1` [Example 41, 2-(5-Methyl-3-phenyl-isoxazol-4-yl)-imidazo[1,2-a]pyridine-6-carboxylic acid (pyridin-3-ylmethyl)-amide]: the Ki was found to be 41.2 nM.

`COC(=O)c1ccn2cc(-c3c(-c4ccccc4)noc3C)nc2c1` [Example 10, 2-(5-Methyl-3-phenyl-isoxazol-4-yl)-imidazo[1,2-a]pyridine-7-carboxylic acid methyl ester]: the Ki came to 150 nM.

For the molecule `Cc1onc(-c2ccccc2)c1-c1cn2cc(-n3cccn3)ccc2n1` [Example 65, 2-(5-Methyl-3-phenyl-isoxazol-4-yl)-6-pyrazol-1-yl-imidazo[1,2-a]pyridine], the Ki is 41.1 nM.

In the case of `Cc1onc(-c2ccccc2)c1-c1cn2cccc(C)c2n1` [Example 2, 8-Methyl-2-(5-methyl-3-phenyl-isoxazol-4-yl)-imidazo[1,2-a]pyridine], the Ki was determined as 232 nM.

Consider `Cc1onc(-c2ccccc2)c1-c1cn2ccc(NC(=O)C3CCCC3)cc2n1` [Example 50, Cyclopentanecarboxylic acid [2-(5-methyl-3-phenyl-isoxazol-4-yl)-imidazo[1,2-a]pyridin-7-yl]-amide], for which the Ki came out at 85.9 nM.

Consider `Cc1onc(-c2ccccc2)c1-c1cn2cc(NC(=O)c3ccccc3)ccc2n1` [Example 60, N-[2-(5-Methyl-3-phenyl-isoxazol-4-yl)-imidazo[1,2-a]pyridin-6-yl]-benzamide], for which the Ki worked out at 30.7 nM.

For `Cc1onc(-c2ccccc2)c1-c1cn2cc(C(=O)NCc3ccco3)ccc2n1` [Example 43, 2-(5-Methyl-3-phenyl-isoxazol-4-yl)-imidazo[1,2-a]pyridine-6-carboxylic acid (furan-2-ylmethyl)-amide], the Ki was 36.9 nM.

For `Cc1onc(-c2ccccc2)c1-c1cn2cc(N3CCCC3=O)ccc2n1` [Example 63, 1-[2-(5-Methyl-3-phenyl-isoxazol-4-yl)-imidazo[1,2-a]pyridin-6-yl]-pyrrolidin-2-one], the Ki stood at 48.7 nM.

`Cc1onc(-c2ccccc2)c1-c1cn2cc(N3CCC3=O)ccc2n1` [Example 62, 1-[2-(5-Methyl-3-phenyl-isoxazol-4-yl)-imidazo[1,2-a]pyridin-6-yl]-azetidin-2-one]: the Ki was 27 nM.

As to `Cc1onc(-c2ccccc2)c1-c1cn2c(-n3ccnc3)cccc2n1` [Example 67, 5-Imidazol-1-yl-2-(5-methyl-3-phenyl-isoxazol-4-yl)-imidazo[1,2-a]pyridine], the Ki is 13.4 nM.

Consider `Cc1onc(-c2ccccc2)c1-c1cn2cc(NC(=O)CC3CC3)ccc2n1` [Example 55, 2-Cyclopropyl-N-[2-(5-methyl-3-phenyl-isoxazol-4-yl)-imidazo[1,2-a]pyridin-6-yl]-acetamide], for which the Ki turned out to be 38.4 nM.

As for `Cc1onc(-c2ccccc2)c1-c1cn2cc(NC(=O)C3CCC3)ccc2n1` [Example 58, Cyclobutanecarboxylic acid [2-(5-methyl-3-phenyl-isoxazol-4-yl)-imidazo[1,2-a]pyridin-6-yl]-amide], the Ki was determined as 28.2 nM.

Turning to `Cc1onc(-c2ccccc2)c1-c1cn2cc(C(=O)NC3CCC3)ccc2n1` [Example 34, 2-(5-Methyl-3-phenyl-isoxazol-4-yl)-imidazo[1,2-a]pyridine-6-carboxylic acid cyclobutylamide], the Ki was found to be 19.8 nM.

Regarding `Cc1onc(-c2ccccc2)c1-c1cn2ccc(C(=O)NCCO)cc2n1` [Example 16, 2-(5-Methyl-3-phenyl-isoxazol-4-yl)-imidazo[1,2-a]pyridine-7-carboxylic acid (2-hydroxy-ethyl)-amide], the Ki amounted to 114 nM.

With `Cc1onc(-c2ccccc2)c1C(=O)COc1cccn2cc(-c3c(-c4ccccc4)noc3C)nc12` [Example 7, 1-(5-Methyl-3-phenyl-isoxazol-4-yl)-2-[2-(5-methyl-3-phenyl-isoxazol-4-yl)-imidazo[1,2-a]pyridin-8-yloxy]-ethanone], the Ki stood at 126 nM.

Turning to `Cc1onc(-c2ccccc2)c1-c1cn2ccc(C(=O)NC3CCC3)cc2n1` [Example 14, 2-(5-Methyl-3-phenyl-isoxazol-4-yl)-imidazo[1,2-a]pyridine-7-carboxylic acid cyclobutylamide], the Ki turned out to be 168 nM.

Consider `Cc1onc(-c2ccccc2)c1-c1cn2cc(C(=O)NCCO)ccc2n1` [Example 36, 2-(5-Methyl-3-phenyl-isoxazol-4-yl)-imidazo[1,2-a]pyridine-6-carboxylic acid (2-hydroxy-ethyl)-amide], for which the Ki stood at 59.8 nM.

Take `Cc1onc(-c2ccccc2)c1-c1cn2ccc(C(=O)NCc3ccncc3)cc2n1` [Example 22, 2-(5-Methyl-3-phenyl-isoxazol-4-yl)-imidazo[1,2-a]pyridine-7-carboxylic acid (pyridin-4-ylmethyl)-amide]: the Ki was found to be 199 nM.

Regarding `Cc1onc(-c2ccccc2)c1-c1cn2cc(Br)ccc2n1` [Example 27, 6-Bromo-2-(5-methyl-3-phenyl-isoxazol-4-yl)-imidazo[1,2-a]pyridine], the Ki came to 121 nM.

Consider `Cc1onc(-c2ccccc2)c1-c1cn2cc(C(=O)NC3CC3)ccc2n1` [Example 33, 2-(5-Methyl-3-phenyl-isoxazol-4-yl)-imidazo[1,2-a]pyridine-6-carboxylic acid cyclopropylamide], for which the Ki was 23.6 nM.

With `c1ccc(-c2noc(C3CC3)c2-c2cn3ccccc3n2)cc1` [Example 68, 2-(5-Cyclopropyl-3-phenyl-isoxazol-4-yl)-imidazo[1,2-a]pyridine], the Ki was 5.5 nM.

`Cc1onc(-c2ccccc2)c1-c1cn2ccc(C(=O)NCCCN3CCOCC3)cc2n1` [Example 19, 2-(5-Methyl-3-phenyl-isoxazol-4-yl)-imidazo[1,2-a]pyridine-7-carboxylic acid (3-morpholin-4-yl-propyl)-amide]: the Ki was 124 nM.

As to `C#Cc1ccc2nc(-c3c(-c4ccccc4)noc3C)cn2c1` [Example 53, 6-Ethynyl-2-(5-methyl-3-phenyl-isoxazol-4-yl)-imidazo[1,2-a]pyridine], the Ki was found to be 164 nM.

`Cc1onc(-c2ccccc2)c1-c1cn2cc(NC(=O)C3CCCC3)ccc2n1` [Example 59, Cyclopentanecarboxylic acid [2-(5-methyl-3-phenyl-isoxazol-4-yl)-imidazo[1,2-a]pyridin-6-yl]-amide]: the Ki stood at 54.7 nM.

As to `C#CCNC(=O)c1ccc2nc(-c3c(-c4ccccc4)noc3C)cn2c1` [Example 32, 2-(5-Methyl-3-phenyl-isoxazol-4-yl)-imidazo[1,2-a]pyridine-6-carboxylic acid prop-2-ynylamide], the Ki came to 44.5 nM.

On to `Cc1ccn2cc(-c3c(-c4ccccc4)noc3C)nc2c1` [Example 8, 7-Methyl-2-(5-methyl-3-phenyl-isoxazol-4-yl)-imidazo[1,2-a]pyridine], for which the Ki is 81.7 nM.

Turning to `Cc1onc(-c2ccccc2)c1-c1cn2cc(N)ccc2n1` [Example 54, 2-(5-Methyl-3-phenyl-isoxazol-4-yl)-imidazo[1,2-a]pyridin-6-ylamine], the Ki turned out to be 88.1 nM.

`C#Cc1ccn2cc(-c3c(-c4ccccc4)noc3C)nc2c1` [Example 45, 7-Ethynyl-2-(5-methyl-3-phenyl-isoxazol-4-yl)-imidazo[1,2-a]pyridine]: the Ki came out at 189 nM.
